Where “and” joins values, the source holds several entries; their conditions need not be identical. Equal entries are not always repeated.
Key:
[1] = tested on: Principal Bile Acids in Colon; assay: Bile acid composition of colon after oral administration (GC-MS); assay type: in vivo, Sprague-Dawley rats; conditions: for Chenodeoxycholic acid mass in colon / Cholic acid mass in colon / Cholic acid percent of colonic bile acids / Deoxycholic acid mass in colon / Deoxycholic acid percent of colonic bile acids / Lithocholic acid mass in colon / Lithocholic acid percent of colonic bile acids / Total bile acid mass in colon / UDCA mass in colon / UDCA percent of colonic bile acids / Δ^22-UDCA mass in colon / Δ^22-UDCA percent of colonic bile acids / Δ^22-ω-Muricholic acid mass in colon / α-Muricholic acid mass in colon / β-Muricholic acid mass in colon / ω-Muricholic acid mass in colon / Δ^22-β-Muricholic acid mass in colon: oral gavage 250 mg/day, 4 days, mean ± SEM; for Change in colonic deoxycholic / lithocholic acid (in words): oral, vs control
Method: Male Sprague-Dawley rats (Harlan Sprague-Dawley, Inc., Indianapolis, Ind.), weighing 210-290 g, were maintained on a 12-hour light-dark cycle and fed standard laboratory chow ad libitum for 3 days. The animals were then transferred to metabolic cages in which they were housed individually and fed the same diet. UDCA, UDCA 3-sulfate, UDCA 7-sulfate, and UDCA 3,7-disulfate were administered by gavage at a dose of 250 mg/day for 4 consecutive days. Each group comprised 3-6 rats. Body weights of the animals were measured each day. On day 5, the animals were killed by exsanguination under ether anesthesia. Plasma was collected and frozen at -20° C. The liver was removed, rinsed in normal saline, and flash-frozen in liquid nitrogen. Urine and feces were collected every 24 hours and frozen at -20° C. All animals received humane care in compliance with the "Guide for the Care and Use of Laboratory Animals" prepared by the National Academy of Sciences (National Institutes of Health publication no. 86-23, revised in 1985).
Intestinal contents were weighed and dissected into small pieces. In each group, feces (100 mg) from all animals were pooled on day 4 of the study and then ground into a fine paste. All samples were sonicated and sequentially refluxed in 80% methanol for 2 hours and chloroform/methanol (1:1) for 1 hour. Samples were taken to dryness, and the dried extracts were resuspended in 80% methanol (20 mL). Fractions of the methanolic extract (1/40 of intestinal contents and 1/20 of feces samples) were removed and the internal standard nordeoxycholic acid (10 μg) was added. This extract was diluted with 0.01 mol/L acetic acid (20 mL) and passed first through a column of Lipidex 1000 (bed size, 4×1 cm; Packard Instrument Co., Groningen, The Netherlands) and then through a Bond-Elut C18, cartridge (Analytichem, Harbor City, Calif.). Bile acids were recovered by elution of the Lipidex 1000 column and the Bond-Elut cartridge with methanol (20 mL and 5 mL, respectively), and the combined extracts were taken to dryness. Unconjugated bile acids were isolated and separated from neutral sterol and conjugated bile acids by lipophilic anion exchange chromatography on diethylaminohydroxypropyl Sephadex LH-20 (Lipidex-DEAP; Package Instrument Co.). Recovery of unconjugated bile acids was achieved by elution with 0.1 mol/L acetic acid in 72% ethanol (7 mL) followed by evaporation of the solvents. Total conjugated bile acids were recovered with 9 mL of 0.3 mol/L acetic acid in 72% ethanol, pH 9.6. Salts were removed by passage through a Bond-Elut C18 cartridge after addition of nordeoxycholic acid (10 μg), and conjugated bile acids were recovered by elution with 5 mL of methanol. Solvolysis was performed in a mixture of methanol (1 mL), distilled tetrahydrofuran (9 mL), and 1 mol/L trifluoracetic acid in dioxane (0.1 mL) and heated to 45° C for 2 hours. After solvolysis, unconjugated bile acids were isolated by chromatography on Lipidex-DEAP. Methyl ester derivatives were prepared by dissolving the sample in methanol (0.3 mL) and reacting with 2.7 mL of freshly distilled ethereal diazomethane. After evaporation of the reagents, the methyl ester derivatives were converted to trimethylsilyl ethers by the addition of […] of Tri-Sil reagent (Pierce Chemicals, Rockford, Ill.). A column of Lipidex 5000 (Packard Instrument Co.) was used to remove derivatizing reagents and to purify the sample.
GC-MS analysis was performed using a Finnigan 4635 mass spectrometer (Finnigan Inc., San Jose, Calif.) that housed an identical gas chromatography column operated under the same conditions. Electron ionization (70 eV) mass spectra were recorded over the mass range of 50-800 daltons by repetitive scanning of the eluting components. […]

biliary lipid secretion = assay: Biliary lipid (cholesterol, phospholipid) secretion during i.v. infusion; assay type: in vivo, Sprague-Dawley rats; conditions: for Cholesterol output, maximal change / Phospholipid output, maximal change: mean ± SEM, six animals
Method: Adult male Sprague-Dawley rats (body weight 200-230 g) were anesthetized by an intraperitoneal injection of pentobarbital (Nembutal, 7.5 mg/100 g body weight), and maintained under sedation by additional doses. The right jugular vein and the common bile duct were cannulated using PE-50 polyethylene tubing (Clay-Adams, Parsippany, N.J.). Body temperature was maintained throughout the experiment at 37° C. using a rectal probe and a thermostatically controlled heating pad (Harvard Apparatus Co., Inc., Millis, Mass.). Saline was infused at a rate of 1.0 ml/h using a Harvard pump (Harvard Apparatus Co., Inc.) into the jugular vein for a control period of 2h. After collecting two 10 minute bile samples for base-line analysis, the bile acids were individually infused intravenously (i.v.) for 30 minutes in stepwise increasing doses (0.5, 1.0, and 2.0 μmol/min/100 g body weight). Bile acid solutions were prepared in 3% human albumin in 0.45% saline. Six animals were used for each experiment and bile was collected every 10 minutes into preweighed tubes. At the end of the experiment, blood was obtained by cardiac puncture, and urine was obtained by aspiration of the bladder. All biological specimens were stored at -20° C. This animal study protocol (#1 B 10044) was approved by the Bioethics committee of the Children's Hospital Medical Center (Cincinnati, Ohio).
Bile volume was determined gravimetrically assuming a density of 1 g/ml. Total 3α-hydroxy bile acid concentration in the bile was measured enzymatically before solvolysis (nonsulfated bile acids) and after solvolysis (total bile acids) (Mashige, F., et al., Direct spectrometry of total bile acids in serum. Clin. Chem. 27: 1352-1356 (1981)). The bile acid output was calculated by multiplying the rate of bile-flow by the bile acid concentration. Biliary phospholipids were determined by an enzymatic procedure based on the choline oxidase method (Nippon Shoji Kaisha, Ltd., Osaka, Japan) (Grantz, D., et al., Enzymatic measurement of choline-containing phospholipids in bile. J. Lipid Res. 22: 273-276 (1981)). Cholesterol was also measured enzymatically (Boehringer Mannehim, Indianapolis, Ind.) (Fromm, H., et al., Use of a simple enzymatic assay for cholesterol analysis in human bile. J. Lipid Res. 21: 259-261 (1980)).
Results were expressed as mean±standard error of mean (SEM). Bile-flow and biliary lipid output were expressed as μl /min/g liver and nmol/min/g liver, respectively. Statistical analysis was made using INSTAT program (Graphpad Software Inc., San Diego, Calif.). Parametric data among groups were analyzed using Student's t-test. The statistical comparisons between the different groups were made by one-way analysis of variance (ANOVA). […] Linear regression analysis was performed. The choleretic activity of each bile acid was determined from the slope of regression line of the correlation between the bile acid secretion rate and bile-flow and was expressed as […]. Comparisons between slopes were made by one-way ANOVA.

Compound | Chenodeoxycholic acid mass in colon [1] | Cholic acid mass in colon [1] | Cholic acid percent of colonic bile acids [1] | Deoxycholic acid mass in colon [1] | Deoxycholic acid percent of colonic bile acids [1] | Lithocholic acid mass in colon [1] | Lithocholic acid percent of colonic bile acids [1] | Total bile acid mass in colon [1] | UDCA mass in colon [1] | UDCA percent of colonic bile acids [1] | Δ^22-UDCA percent of colonic bile acids [1] | Δ^22-ω-Muricholic acid mass in colon [1] | α-Muricholic acid mass in colon [1] | β-Muricholic acid mass in colon [1] | ω-Muricholic acid mass in colon [1] | Change in colonic deoxycholic / lithocholic acid (in words) [1] | Biliary cholesterol secretion (in words) (biliary lipid secretion) | Biliary phospholipid secretion (in words) (biliary lipid secretion) | Cholesterol output, maximal change (biliary lipid secretion) | Phospholipid output, maximal change (biliary lipid secretion) | further results
C[C@H](CCC(=O)O)[C@H]1CC[C@H]2[C@@H]3[C@@H](O)C[C@@H]4C[C@H](O)CC[C@]4(C)[C@H]3CC[C@]12C [UDCA, 3 alpha, 7 beta-dihydroxy-5 beta-cholan-24oic acid, reference compound] | 0.05 mg | 0.24 mg | 8.9% | 0.31 mg | 10.4% | 0.97 mg | 32.0% | 3.04 mg | 0.31 mg | 8.3% | 0.4% | 0.19 mg | 0.01 mg | 0.13 mg | 0.83 mg | decrease (P=0.003) in the proportion of deoxycholic acid | significant decline | increased significantly | 1.88 ± 0.19 nmol/min/g liver | 17.20 ± 1.90 nmol/min/g liver | Δ^22-UDCA mass in colon [1]: 0.02 mg
C[C@H](CCC(=O)O)[C@H]1CC[C@H]2[C@@H]3[C@@H](O)C[C@@H]4C[C@H](OS(=O)(=O)O)CC[C@]4(C)[C@H]3CC[C@]12C [UDCA-3S, ursodeoxycholic acid 3-sulfate] | 0.06 mg | 0.44 mg | 13.8% | .58 mg | 17.4% | 0.61 mg | 18.4% | 4.07 mg | 0.05 mg | 1.5 ± 0.2% | 0.2 ± 0.1% | 0.44 mg | 0.02 mg | 0.20 mg | 1.67 mg | – | significantly reduced the biliary cholesterol output | significant reduction in biliary phospholipids | 0.40 ± 0.02 nmol/min/g liver and 0.40±0.05 nmol/min/g liver | 4.00 ± 0.50 nmol/min/g liver | Δ^22-UDCA mass in colon [1]: 0.01 mg; Δ^22-β-Muricholic acid mass in colon [1]: 0.01 mg
C[C@H](CCC(=O)O)[C@H]1CC[C@H]2[C@@H]3[C@@H](OS(=O)(=O)O)C[C@@H]4C[C@H](O)CC[C@]4(C)[C@H]3CC[C@]12C [UDCA-7S, ursodeoxycholic acid 7-sulfate] | 0.06 mg | 0.09 mg | 2.5% | 0.36 mg | 11.4% | 0.04 mg | 1.3% | 2.98 mg | 1.28 mg | 44.0% | 0% | 0.15 mg | 0.03 mg | 0.06 mg | 0.88 mg | substantial reductions in the mass and proportion of both deoxycholic acid and lithocholic acid | cholesterol secretion was maintained | increased significantly | 1.76 ± 0.23 nmol/min/g liver and 1.76±0.21 nmol/min/g liver | 15.00 ± 1.70 nmol/min/g liver | Δ^22-β-Muricholic acid mass in colon [1]: 0.03 mg
C[C@H](CCC(=O)O)[C@H]1CC[C@H]2[C@@H]3[C@@H](OS(=O)(=O)O)C[C@@H]4C[C@H](OS(=O)(=O)O)CC[C@]4(C)[C@H]3CC[C@]12C [UDCA-DS, ursodeoxycholic acid 3,7-disulfate] | 0.07 mg | 0.23 mg | 26.3% | 0.31 mg | 27.2% | 0.02 mg | 1.8% | 1.22 mg | 0.20 mg | 14.7% | 0% | 0.06 mg | 0.03 mg | 0.06 mg | 0.24 mg | substantial reductions in the mass and proportion of both deoxycholic acid and lithocholic acid | significantly reduced the biliary cholesterol output | significant reduction in biliary phospholipids | 0.37 ± 0.07 nmol/min/g liver and 0.37±0.12 nmol/min/g liver | 2.50 ± 0.30 nmol/min/g liver | Δ^22-β-Muricholic acid mass in colon [1]: 0.01 mg

— patent US5763435A, “Sulfate conjugates of ursodeoxycholic acid, and their beneficial use in inflammatory disorders” (priority 1995, dated 1998)
